Test results published in PubChem BioAssay (NCI).
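Step 1: Grow cells in 96-well plates. Step 2: Expose to compound for 48 hours at 5 concentrations. Step 3: Interpolate endpoints linearly; if unreached, use highest concentration. TGI: concentration producing complete growth inhibition.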

Columns and labels:
Test in all cases: growth of human tumour cells (NCI), 48 h
UACC-62 melanoma = system: UACC-62 melanoma
COLO 205 colon = system: COLO 205 colon
RPMI-8226 leukemia = system: RPMI-8226 leukemia
NCI-H226 lung = system: NCI-H226 lung
MCF7 breast = system: MCF7 breast
SK-MEL-28 melanoma = system: SK-MEL-28 melanoma
HCC-2998 colon = system: HCC-2998 colon
UO-31 renal = system: UO-31 renal
A549 NSCLC = system: A549 NSCLC
HCT-116 colon = system: HCT-116 colon
KM12 colon = system: KM12 colon
MALME-3M melanoma = system: MALME-3M melanoma
NCI-H23 lung = system: NCI-H23 lung
HCT-15 colon = system: HCT-15 colon
MDA-MB-231 breast = system: MDA-MB-231 breast
PC-3 prostate = system: PC-3 prostate
M14 melanoma = system: M14 melanoma
EKVX NSCLC = system: EKVX NSCLC
BT-549 breast = system: BT-549 breast
HL-60(TB) leukemia = system: HL-60(TB) leukemia
HOP-62 NSCLC = system: HOP-62 NSCLC
TK-10 renal = system: TK-10 renal
UACC-257 melanoma = system: UACC-257 melanoma
HOP-92 NSCLC = system: HOP-92 NSCLC
HT29 colon = system: HT29 colon
SW-620 colon = system: SW-620 colon
SR leukemia = system: SR leukemia
RXF 393 renal = system: RXF 393 renal
A498 renal = system: A498 renal
SK-MEL-2 melanoma = system: SK-MEL-2 melanoma
MDA-N = system: MDA-N
SN12C renal = system: SN12C renal
OVCAR-8 ovarian = system: OVCAR-8 ovarian
786-0 renal = system: 786-0 renal
IGROV1 ovarian = system: IGROV1 ovarian
OVCAR-5 ovarian = system: OVCAR-5 ovarian
SK-MEL-5 melanoma = system: SK-MEL-5 melanoma
ACHN renal = system: ACHN renal
U251 CNS = system: U251 CNS
K-562 leukemia = system: K-562 leukemia
NCI-H460 lung = system: NCI-H460 lung
SNB-19 CNS = system: SNB-19 CNS
MOLT-4 leukemia = system: MOLT-4 leukemia
SNB-75 CNS = system: SNB-75 CNS
HS 578T breast = system: HS 578T breast
NCI-H522 lung = system: NCI-H522 lung
CAKI-1 renal = system: CAKI-1 renal
SF-268 CNS = system: SF-268 CNS
SK-OV-3 ovarian = system: SK-OV-3 ovarian
NCI/ADR-RES ovarian = system: NCI/ADR-RES ovarian
SF-295 CNS = system: SF-295 CNS
MDA-MB-435 = system: MDA-MB-435
SF-539 CNS = system: SF-539 CNS
DU-145 prostate = system: DU-145 prostate
OVCAR-4 ovarian = system: OVCAR-4 ovarian
OVCAR-3 ovarian = system: OVCAR-3 ovarian
LOX IMVI melanoma = system: LOX IMVI melanoma
T-47D breast = system: T-47D breast

CCOC(=O)C1(C)CCCc2sc(N)c(C#N)c21 (stereo not given)
TGI (UACC-62 melanoma): > 100 µM
TGI (COLO 205 colon): > 100 µM
TGI (RPMI-8226 leukemia): > 100 µM
TGI (NCI-H226 lung): > 100 µM
TGI (MCF7 breast): > 100 µM
TGI (SK-MEL-28 melanoma): > 100 µM
TGI (HCC-2998 colon): > 100 µM
TGI (UO-31 renal): > 100 µM
TGI (A549 NSCLC): > 100 µM
TGI (HCT-116 colon): > 100 µM
TGI (KM12 colon): > 100 µM
TGI (MALME-3M melanoma): > 100 µM
TGI (NCI-H23 lung): > 100 µM
TGI (HCT-15 colon): > 100 µM
TGI (MDA-MB-231 breast): > 100 µM
TGI (PC-3 prostate): > 100 µM
TGI (M14 melanoma): > 100 µM
TGI (EKVX NSCLC): > 100 µM
TGI (BT-549 breast): > 100 µM
TGI (HL-60(TB) leukemia): > 100 µM
TGI (HOP-62 NSCLC): > 100 µM
TGI (TK-10 renal): > 100 µM
TGI (UACC-257 melanoma): > 100 µM
TGI (HOP-92 NSCLC): > 100 µM
TGI (HT29 colon): > 100 µM
TGI (SW-620 colon): > 100 µM
TGI (SR leukemia): > 100 µM
TGI (RXF 393 renal): > 100 µM
TGI (A498 renal): > 100 µM
TGI (SK-MEL-2 melanoma): > 100 µM
TGI (MDA-N): > 100 µM
TGI (SN12C renal): > 100 µM
TGI (OVCAR-8 ovarian): > 100 µM
TGI (786-0 renal): > 100 µM
TGI (IGROV1 ovarian): > 100 µM
TGI (OVCAR-5 ovarian): > 100 µM
TGI (SK-MEL-5 melanoma): > 100 µM
TGI (ACHN renal): > 100 µM
TGI (U251 CNS): > 100 µM
TGI (K-562 leukemia): > 100 µM
TGI (NCI-H460 lung): > 100 µM
TGI (SNB-19 CNS): > 100 µM
TGI (MOLT-4 leukemia): > 100 µM
TGI (SNB-75 CNS): > 100 µM
TGI (HS 578T breast): > 100 µM

COc1ccc(NC(=S)Nc2ccccc2)cc1
TGI (UACC-62 melanoma): > 100 µM
TGI (NCI-H522 lung): > 100 µM
TGI (COLO 205 colon): > 100 µM
TGI (CAKI-1 renal): > 100 µM
TGI (RPMI-8226 leukemia): > 100 µM
TGI (NCI-H226 lung): > 100 µM
TGI (MCF7 breast): > 100 µM
TGI (SK-MEL-28 melanoma): > 100 µM
TGI (HCC-2998 colon): > 100 µM
TGI (UO-31 renal): > 100 µM
TGI (A549 NSCLC): > 100 µM
TGI (HCT-116 colon): > 100 µM
TGI (SF-268 CNS): > 100 µM
TGI (MALME-3M melanoma): > 100 µM
TGI (NCI-H23 lung): > 100 µM
TGI (HCT-15 colon): > 100 µM
TGI (MDA-MB-231 breast): > 100 µM
TGI (PC-3 prostate): > 100 µM
TGI (M14 melanoma): > 100 µM
TGI (EKVX NSCLC): > 100 µM
TGI (BT-549 breast): > 100 µM
TGI (HL-60(TB) leukemia): > 100 µM
TGI (HOP-62 NSCLC): > 100 µM
TGI (SK-OV-3 ovarian): > 100 µM
TGI (NCI/ADR-RES ovarian): > 100 µM
TGI (TK-10 renal): > 100 µM
TGI (UACC-257 melanoma): > 100 µM
TGI (HOP-92 NSCLC): > 100 µM
TGI (SF-295 CNS): > 100 µM
TGI (MDA-MB-435): > 100 µM
TGI (SF-539 CNS): > 100 µM
TGI (DU-145 prostate): > 100 µM
TGI (HT29 colon): > 100 µM
TGI (SW-620 colon): > 100 µM
TGI (SR leukemia): > 100 µM
TGI (RXF 393 renal): > 100 µM
TGI (A498 renal): > 100 µM
TGI (SK-MEL-2 melanoma): > 100 µM
TGI (MDA-N): > 100 µM
TGI (SN12C renal): > 100 µM
TGI (OVCAR-8 ovarian): > 100 µM
TGI (786-0 renal): > 100 µM
TGI (IGROV1 ovarian): > 100 µM
TGI (OVCAR-5 ovarian): > 100 µM
TGI (OVCAR-4 ovarian): > 100 µM
TGI (SK-MEL-5 melanoma): > 100 µM
TGI (ACHN renal): > 100 µM
TGI (U251 CNS): > 100 µM
TGI (K-562 leukemia): > 100 µM
TGI (NCI-H460 lung): > 100 µM
TGI (SNB-19 CNS): > 100 µM
TGI (OVCAR-3 ovarian): > 100 µM
TGI (SNB-75 CNS): > 100 µM
TGI (HS 578T breast): > 100 µM
TGI (LOX IMVI melanoma): > 100 µM

COc1ccc(/C=C/c2cc(OC)c(OC)c(OC)c2)cc1O[Si](C)(C)C(C)(C)C
TGI (UACC-62 melanoma): 14.1 µM
TGI (NCI-H522 lung): 8.08 µM
TGI (COLO 205 colon): 32.7 µM
TGI (CAKI-1 renal): > 100 µM
TGI (RPMI-8226 leukemia): 3.68 µM
TGI (NCI-H226 lung): 47.7 µM
TGI (T-47D breast): > 100 µM
TGI (MCF7 breast): 25.6 µM
TGI (SK-MEL-28 melanoma): > 100 µM
TGI (HCC-2998 colon): > 100 µM
TGI (UO-31 renal): > 100 µM
TGI (A549 NSCLC): > 100 µM
TGI (HCT-116 colon): 14.2 µM
TGI (SF-268 CNS): > 100 µM
TGI (NCI-H23 lung): > 100 µM
TGI (HCT-15 colon): 21.7 µM
TGI (MDA-MB-231 breast): > 100 µM
TGI (PC-3 prostate): > 100 µM
TGI (M14 melanoma): 29.3 µM
TGI (EKVX NSCLC): > 100 µM
TGI (BT-549 breast): 64 µM
TGI (HOP-62 NSCLC): > 100 µM
TGI (SK-OV-3 ovarian): > 100 µM
TGI (TK-10 renal): > 100 µM
TGI (UACC-257 melanoma): 37.3 µM
TGI (HOP-92 NSCLC): 85.4 µM
TGI (SF-295 CNS): 83.8 µM
TGI (MDA-MB-435): 5.86 µM
TGI (SF-539 CNS): 5.71 µM
TGI (DU-145 prostate): > 100 µM
TGI (HT29 colon): > 100 µM
TGI (SW-620 colon): 17.3 µM
TGI (RXF 393 renal): 9.02 µM
TGI (A498 renal): 94.1 µM
TGI (SK-MEL-2 melanoma): > 100 µM
TGI (MDA-N): 6.25 µM
TGI (SN12C renal): 74.5 µM
TGI (OVCAR-8 ovarian): 10.8 µM
TGI (786-0 renal): 30.7 µM
TGI (IGROV1 ovarian): > 100 µM
TGI (OVCAR-5 ovarian): > 100 µM
TGI (OVCAR-4 ovarian): > 100 µM
TGI (SK-MEL-5 melanoma): 4.44 µM
TGI (ACHN renal): 34 µM
TGI (U251 CNS): 26.6 µM
TGI (NCI-H460 lung): 13.4 µM
TGI (SNB-19 CNS): > 100 µM
TGI (MOLT-4 leukemia): 22.2 µM
TGI (SNB-75 CNS): > 100 µM
TGI (HS 578T breast): 8.18 µM
